# Laboratory results: US20100298282A1, “Treatment of Ocular Conditions and the Side-Effects of Glucocorticoids” (priority 2006, published 2010)
# Where two headings read alike, the source gives them in different places. Marks after values point to notes of the source that are not given here.
# How the values were obtained:
# [1] = molecular target: T1, human recombinant receptor (PR) (Homo sapiens, UniProt P06401); assay: PR binding, radioligand binding with [3H]-progesterone
# T1 sequence (P06401 1-933): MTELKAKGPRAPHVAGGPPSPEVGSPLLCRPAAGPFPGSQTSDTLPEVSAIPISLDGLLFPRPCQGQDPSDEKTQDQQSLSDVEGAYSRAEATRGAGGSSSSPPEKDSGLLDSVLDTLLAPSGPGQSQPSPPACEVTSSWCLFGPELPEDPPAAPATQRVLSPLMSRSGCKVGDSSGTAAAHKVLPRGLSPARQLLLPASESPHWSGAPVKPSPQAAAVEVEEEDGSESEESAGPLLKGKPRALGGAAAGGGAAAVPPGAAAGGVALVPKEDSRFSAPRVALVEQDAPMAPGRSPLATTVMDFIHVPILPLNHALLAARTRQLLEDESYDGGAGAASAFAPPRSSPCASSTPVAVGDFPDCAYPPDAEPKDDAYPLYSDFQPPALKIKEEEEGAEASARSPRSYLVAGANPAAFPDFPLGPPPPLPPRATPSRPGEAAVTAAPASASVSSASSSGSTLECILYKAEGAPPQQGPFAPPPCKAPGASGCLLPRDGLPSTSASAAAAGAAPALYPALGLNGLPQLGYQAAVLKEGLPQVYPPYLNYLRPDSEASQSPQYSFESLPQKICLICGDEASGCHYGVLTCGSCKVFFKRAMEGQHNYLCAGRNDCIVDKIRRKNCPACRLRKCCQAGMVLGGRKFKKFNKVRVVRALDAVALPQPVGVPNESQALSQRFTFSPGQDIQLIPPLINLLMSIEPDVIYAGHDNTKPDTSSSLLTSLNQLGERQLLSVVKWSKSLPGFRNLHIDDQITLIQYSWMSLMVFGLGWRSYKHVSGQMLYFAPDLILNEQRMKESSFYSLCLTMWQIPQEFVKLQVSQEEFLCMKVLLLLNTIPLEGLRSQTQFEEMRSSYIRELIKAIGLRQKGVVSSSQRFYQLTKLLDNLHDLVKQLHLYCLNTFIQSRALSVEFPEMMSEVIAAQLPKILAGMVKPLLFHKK
# Method: (§1) The methods are described by Gill et al. and Morgan et al., supra.
# PR binding was assessed using the same methods, using the human recombinant receptor and [^3H]-progesterone. IC50 values were determined from six-point concentration/inhibition curves performed in duplicate at semi-log concentrations.
# [2] = molecular target: T2, human recombinant receptor (GR) (Homo sapiens, UniProt P04150); assay: GR binding, glucocorticoid radioligand binding with [3H]-dexamethasone
# T2 sequence (P04150 1-777): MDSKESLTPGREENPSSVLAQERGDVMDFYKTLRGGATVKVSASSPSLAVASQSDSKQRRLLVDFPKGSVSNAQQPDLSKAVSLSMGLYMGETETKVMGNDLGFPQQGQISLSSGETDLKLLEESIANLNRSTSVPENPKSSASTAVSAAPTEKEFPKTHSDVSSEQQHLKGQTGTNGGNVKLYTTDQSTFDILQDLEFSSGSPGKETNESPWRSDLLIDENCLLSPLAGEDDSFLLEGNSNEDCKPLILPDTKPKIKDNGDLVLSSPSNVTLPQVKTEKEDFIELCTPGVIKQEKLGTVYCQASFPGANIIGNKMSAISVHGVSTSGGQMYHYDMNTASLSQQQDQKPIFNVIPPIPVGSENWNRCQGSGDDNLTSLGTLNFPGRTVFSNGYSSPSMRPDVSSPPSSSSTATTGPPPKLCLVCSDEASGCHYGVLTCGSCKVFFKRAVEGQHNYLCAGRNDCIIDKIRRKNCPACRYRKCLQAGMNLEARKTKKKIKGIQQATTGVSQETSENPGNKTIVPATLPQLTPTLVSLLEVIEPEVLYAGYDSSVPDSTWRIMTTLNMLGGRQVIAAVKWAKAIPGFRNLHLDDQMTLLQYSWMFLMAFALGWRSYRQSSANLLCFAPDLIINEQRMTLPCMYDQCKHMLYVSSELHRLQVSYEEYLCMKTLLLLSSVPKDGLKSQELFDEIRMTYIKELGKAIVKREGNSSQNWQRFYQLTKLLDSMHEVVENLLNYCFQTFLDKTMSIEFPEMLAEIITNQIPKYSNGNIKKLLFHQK
# From the text: as §1
# [3] = molecular target: T3, native glucocorticoid receptors (Homo sapiens, UniProt P04150); assay: Glucocorticoid reporter gene assay (GRE-luciferase) in SW1353 cells, GR antagonist activity; format: cell-based; conditions: for Ki: Ki=IC50/(1+[Dex]/EC50Dex); for IC50: 24 hours, in the presence of 50 nM dexamethasone
# T3 construct: cell line that expresses native glucocorticoid receptors; endogenous in cells; host or cells: SW1353 human chondrosarcoma cells, stably transfected only with a GRE-luciferase reporter
# T3 sequence (P04150 1-777): T2 sequence (P04150 1-777)
# From the text: Depending on the intended use and route of administration, various criteria may be used to determine a GR antagonist for use in the invention. […] The GR antagonism preferably negates more than 30%, more preferably more than 50%, and most preferably more than 90%, of the GR agonism at sites distant from the site of administration of the corticosteroid, and negates less than 70%, more preferably less than 50%, and most preferably less than 10%, of the GR agonism at the site of intended action of the corticosteroid.
# The glucocorticoid reporter gene assay was performed in SW1353 human chondrosarcoma cell line that expresses native glucocorticoid receptors (Morgan et al., supra), stably transfected with a vector containing a glucocorticoid-responsive element (GRE) linked to the firefly luciferase gene. […] Compounds were tested on two separate occasions to determine inter-assay variability.
# Ki values were calculated from the equation
# Ki=IC50/(1+[Dex]/EC50^Dex)
# [4] = test system: Intraocular pressure (IOP); assay: Intraocular pressure after a single eye drop in New Zealand White rabbits; format: in vivo; conditions: rabbit; for IOP at 3 hours, Mean (SEM) / IOP at 4 hours, Mean (SEM): 0.3% single eye drop; for decrease in IOP compared to vehicle-treated group: at 3 and 4 hours
# Method: Healthy female New Zealand White rabbits were tested in a randomized, blind, controlled study, with 6 animals per treatment group. They were acclimatized for 7 days prior to the start of the study. Intraocular pressure (IOP) was measured in both eyes pre-treatment and at intervals after instillation of a single eye drop of vehicle or test compound into the left eye of each animal, administered from a dropper bottle. The volume of each drop was approximately 60-65 microlitres. The vehicle was a sterile solution of 15% hydroxpropyl-β-cyclodextrin, 5% polyethylene glycol, 0.5% hydroxypropylmethylcellulose in deionised water, adjusted to pH 7 with HCl or NaOH as appropriate. […] IOP was measured using a Mentor Tonopen XL (Lim et al., 2005, Invest Opthalmol Vis Sci 46 2419-23), after topical administration of 0.5% proxymetacaine HCl local anaesthetic. Ten recordings per eye per time point were taken and a mean reading documented.
# [5] = test system: intraocular pressure; conditions: rabbit, cited from earlier work
# [6] = test system: rat skin; conditions: given subcutaneously or topically to the skin; cited from earlier work
# [7] = molecular target: GR receptors in the iris-ciliary body (Oryctolagus cuniculus, UniProt P59667); conditions: rabbit eye; cited from earlier work
# GR receptors in the iris-ciliary body, sequence (P59667 whole entry): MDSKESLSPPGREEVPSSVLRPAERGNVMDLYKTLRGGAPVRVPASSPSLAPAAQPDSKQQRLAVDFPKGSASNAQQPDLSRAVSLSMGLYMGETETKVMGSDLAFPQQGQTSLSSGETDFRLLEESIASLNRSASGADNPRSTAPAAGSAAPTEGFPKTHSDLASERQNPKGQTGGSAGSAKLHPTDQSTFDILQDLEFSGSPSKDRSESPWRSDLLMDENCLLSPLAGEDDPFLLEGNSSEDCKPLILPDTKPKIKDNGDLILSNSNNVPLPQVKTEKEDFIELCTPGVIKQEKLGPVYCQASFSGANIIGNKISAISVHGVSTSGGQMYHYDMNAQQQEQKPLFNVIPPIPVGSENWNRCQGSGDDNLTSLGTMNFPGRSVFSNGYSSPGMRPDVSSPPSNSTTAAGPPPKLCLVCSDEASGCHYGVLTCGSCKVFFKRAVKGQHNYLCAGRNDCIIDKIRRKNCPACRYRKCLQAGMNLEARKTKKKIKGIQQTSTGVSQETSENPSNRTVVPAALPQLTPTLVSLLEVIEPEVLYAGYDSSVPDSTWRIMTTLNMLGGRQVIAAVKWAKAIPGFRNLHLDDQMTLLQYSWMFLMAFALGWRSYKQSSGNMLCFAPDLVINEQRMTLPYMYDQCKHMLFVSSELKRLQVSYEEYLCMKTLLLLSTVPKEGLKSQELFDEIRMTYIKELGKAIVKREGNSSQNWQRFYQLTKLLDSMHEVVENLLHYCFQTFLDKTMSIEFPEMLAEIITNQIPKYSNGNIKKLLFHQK
# [8] = read-out: GR Antagonist Mean Ki
SMILES,IC50 [1],Ki [1],IC50 [2],Ki [2],Ki ([3]; GR Antagonist Mean Ki),IC50 [3],"Ki [3, 8]","IOP at 3 hours, Mean (SEM) [4]","IOP at 4 hours, Mean (SEM) [4]",decrease in IOP compared to vehicle-treated group [4],"effect on intraocular pressure, topical ([5]; 1% suspension eyedrops topically, after 4-13 weeks of treatment)","effect on intraocular pressure, subconjunctival injection ([5]; 1% suspension injected subconjunctivally)",effect on steroid-induced skin atrophy [6],binding to GR receptors in iris-ciliary body [7]
"COc1cccc2c1-c1ccc(NS(C)(=O)=O)cc1C(c1cccc(C)c1)O2 (stereo not drawn) [Compound A-362947, N-[1-methoxy-6-(3-methylphenyl)-6H-benzo{c}chromen-8-yl]methanesulfonamide]",1330 nM,531 nM,5.64 nM,2.82 nM,50.4 nM,–,–,–,–,–,–,–,–,–
"CC#C[C@]1(O)CC[C@H]2[C@@H]3CCC4=CC(=O)CCC4=C3[C@@H](c3ccc(N(C)C)cc3)C[C@@]21C [RU486, Mifepristone]",–,–,–,–,–,–,–,11.67 (1.23) mm Hg,11.83 (1.19) mm Hg,did not induce a statistically significant decrease in IOP,falls in intraocular pressure have been noted,falls in intraocular pressure were reported,blocked atrophogenic effect of the topical steroid without affecting its anti-inflammatory effect,specifically blocks the binding of the GR agonist triamcinolone

# Now from value to compound, other results behind:
IC50 [1],Ki [1],IC50 [2],Ki [2],Ki ([3]; GR Antagonist Mean Ki),IC50 [3],"Ki [3, 8]",SMILES,"IOP at 3 hours, Mean (SEM) [4]","IOP at 4 hours, Mean (SEM) [4]",decrease in IOP compared to vehicle-treated group [4],"effect on intraocular pressure, topical ([5]; 1% suspension eyedrops topically, after 4-13 weeks of treatment)","effect on intraocular pressure, subconjunctival injection ([5]; 1% suspension injected subconjunctivally)",effect on steroid-induced skin atrophy [6],binding to GR receptors in iris-ciliary body [7]
4.46 nM,1.79 nM,1.12 nM,0.56 nM,–,17.3 nM,2.55 nM,CC#C[C@]1(O)CC[C@H]2[C@@H]3CCC4=CC(=O)CCC4=C3[C@@H](c3ccc(NC)cc3)C[C@@]21C [RU42633],–,–,–,–,–,–,–
10.6 nM,4.24 nM,1.74 nM,0.87 nM,–,80.9 nM,12.6 nM,CN(C)c1ccc([C@H]2C[C@@]3(C)[C@@H](CC[C@]3(O)C#CCO)[C@@H]3CCC4=CC(=O)CCC4=C32)cc1 [RU42698],11.83 (0.40) * mm Hg,11.83 (0.31) * mm Hg,induced a significant decrease,–,–,–,–
15.9 nM,6.37 nM,1.36 nM,0.68 nM,–,58.3 nM,8.6 nM,CC#C[C@]1(O)CC[C@H]2[C@@H]3CCC4=CC(=O)CCC4=C3[C@@H](c3ccc(N)cc3)C[C@@]21C [RU42848],11.67 (0.49) * mm Hg,11.50 (0.34) * mm Hg,induced a significant decrease in IOP,–,–,–,–
